Results: paper PMC5996347, “2-Mercapto-Quinazolinones as Inhibitors of Type II NADH Dehydrogenase and Mycobacterium tuberculosis: Structure–Activity Relationships, Mechanism of Action and Absorption, Distribution, Metabolism, and Excretion Characterization” (ACS Infectious Diseases, 2018)
≈ marks a conversion by molar mass, not a printed value.

Assays:
[1] = biological target: T1, recombinant MBP-MtNdh (MTb NDH-2) (Mycobacterium tuberculosis, UniProt P95160); experiment: Ndh activity assay (NADH oxidation at 340 nm); type: biochemical
T1 construct: The ORF corresponding to Rv1854c was codon optimized for E. coli; made in house; host or cells: E. coli BL21 (DE3) pLysS
T1 sequence (P95160 whole entry): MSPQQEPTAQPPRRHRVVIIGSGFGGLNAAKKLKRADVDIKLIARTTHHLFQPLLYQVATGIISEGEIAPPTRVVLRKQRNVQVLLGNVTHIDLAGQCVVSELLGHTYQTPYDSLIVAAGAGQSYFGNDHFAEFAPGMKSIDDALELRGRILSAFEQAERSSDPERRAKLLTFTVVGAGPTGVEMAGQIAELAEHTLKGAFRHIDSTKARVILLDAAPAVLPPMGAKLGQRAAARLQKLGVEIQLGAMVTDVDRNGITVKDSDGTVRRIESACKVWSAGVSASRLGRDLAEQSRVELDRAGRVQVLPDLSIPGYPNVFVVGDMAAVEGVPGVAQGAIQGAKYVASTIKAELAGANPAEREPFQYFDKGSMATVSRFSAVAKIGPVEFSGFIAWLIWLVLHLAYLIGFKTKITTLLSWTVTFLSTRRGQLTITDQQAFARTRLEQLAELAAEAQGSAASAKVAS

[2] = tested on: HepG2; experiment: cells; conditions: Homo sapiens, HepG2, read-out: HepG2 IC50
[3] = tested on: HepG2
[4] = Calculated properties (StarDrop)
[5] = tested on: M. tuberculosis H37Rv; experiment: microbe, parasite or virus in culture; type: cell-based; conditions: Mycobacterium tuberculosis
[6] = tested on: wild-type MTb H37Rv; experiment: CFU after 7 days of treatment, wild-type; type: cell-based, Mycobacterium tuberculosis; conditions: treatment at MIC concentrations
Method: Figure 4 Mtb lacking the alternative type II NADH dehydrogenase encoded by ndhA was more susceptible to compound 1. Colony-forming units (CFU) after 7 days of treatment as compared to CFU at start of drug treatment (inoculum). Unpaired t test comparison between WT and ΔndhA at 0.5 μM compound 1: two-tailed P-value = 0.0023.

[7] = tested on: MTb H37Rv in J774 macrophages; experiment: Activity against MTb in infected macrophages; type: cell-based, Mycobacterium tuberculosis; conditions: 7 days of drug treatment, CFU
Method: Figure S7. […] J774 macrophages in
24w plates (500,000 cells per well) were infected with MTb H37Rv at an MOI of 1:1 for 24 hours. Infected cells were washed three times and supplemented with macrophage growth medium with compounds at the indicated concentrations or the DMSO solvent. Cell medium was replenished every 3 days and cells lyzed after 7 days of drug treatment and plated on 7H11/OADC plates for CFU enumeration.
(1 picture or pasted object on this page, not shown here)

[8] = Mouse pharmacokinetics; type: in vivo, female C57Bl/6 mice; conditions: female
Method: Test compound was dosed as a bolus solution intravenously at 3 mg free base/kg (dose volume: 5 mL/kg; dose vehicle: 10% DMSO; 40% PEG400; 50% saline) to female C57Bl/6 mice (n = 3) or dosed orally by gavage as a suspension at 10 or at 5, 30, or 100 mg free base/kg (dose volume: 10 mL/kg; dose vehicle: 1.0% carboxy methyl cellulose) to female C57Bl/6 mice (n = 3/dose level). Blood samples were taken from each mouse tail vein at predetermined time points postdose, mixed with nine volumes of distilled water, and stored frozen until UPLC-MS/MS analysis. Pharmacokinetic parameters were derived from the blood concentration time curve using PK Solutions software v 2.0 (Summit Research Services, USA).

[9] = mouse liver microsomes
[10] = tested on: M. tuberculosis H37Rv; experiment: Extracellular flux analysis (oxygen consumption rate); conditions: 1 at 39 μM, 7 at 45 μM
[11] = physchem; type: physicochemical; conditions: pH 7.4
Method: The chromatographic hydrophobicity index (CHI) was determined according the method previously described.[43],[44] Briefly, test compounds were prepared as 0.5 mM solutions in 50:50 acetonitrile/water and analyzed by reversed-phase HPLC-UV (wavelength 254 nm) using a Phenomenex Luna C18 100 Å, 150 × 4.6 mm, 5 μm column with a gradient of aqueous phase (50 mM ammonium acetate (pH 7.4)) and mobile phase (acetonitrile). By plotting the retention time of a set of reference compounds against known CHI values, the CHI value of test compounds was calculated according to their retention time.

[12] = type: in vitro ADME; conditions: mouse, plasma
Method: In brief, a 96-well equilibrium dialysis apparatus was used to determine the free fraction in plasma for each compound (HT Dialysis LLC, Gales Ferry, CT). Membranes (12–14 kDaA cutoff) were conditioned in deionized water for 60 min, followed by conditioning in 80:20 deionized water/ethanol overnight and then rinsed in water and isotonic buffer before use. Mouse plasma from appropriate species was removed from the freezer and allowed to thaw on the day of experiment. Thawed plasma was then centrifuged (Allegra X12-R, Beckman Coulter, USA) and spiked with test compound (final concentration 10 μg/mL), and 150 μL aliquots (n = 3 replicate determinations) were loaded into the 96-well equilibrium dialysis plate. Dialysis against isotonic buffer (150 μL) was carried out for 5 h in a temperature controlled incubator at ca. 37 °C (Barworld scientific Ltd., UK) using an orbital microplate shaker at 100 rpm (Barworld scientific Ltd., UK). At the end of the incubation period, 50 μL aliquots of plasma or buffer were transferred into a 96-well deep plate and the composition in each well was balanced with control fluid (50 μL), such that the volume of buffer to plasma is the same. Sample extraction was performed by the addition of 200 μL of acetonitrile containing an appropriate internal standard. Samples were allowed to mix for 1 min and then centrifuged at 3000 rpm in 96-well blocks for 15 min (Allegra X12-R, Beckman Coulter, USA) after which 150 μL of supernatant was removed to 50 μL of water. All samples were analyzed by UPLC-MS/MS on a Quattro Premier XE Mass Spectrometer (Waters Corporation, USA). The unbound fraction was determined as the ratio of the peak area in buffer to that in plasma.

[13] = tested on: M. tuberculosis H37Rv; experiment: H37Rv MIC in GAST medium; type: cell-based, Mycobacterium tuberculosis; conditions: Mycobacterium tuberculosis, H37RV
[14] = tested on: cyd knockout strain (cydC::aph); type: cell-based, Mycobacterium tuberculosis
[15] = physchem; type: physicochemical; conditions: water, kinetic from dmso stock, Kinetic solubility
[16] = C57Bl/6, mouse, in vivo, po, 10 mg/kg

O=C(CSc1nc2ccccc2c(=O)[nH]1)NC1CCCCC1 [Compound 1, N-Cyclohexyl-2-((4-oxo-3,4-dihydroquinazolin-2-yl)thio)acetamide]
IC50 ([1]; NADH 250 μM, Q2 40 μM, mean ± SD, Figure 6 inset, read-out: IC50 against MBP-MtNdh): 0.023 ± 0.008 µM | Ki ([1]; varying Q2 or NADH, double reciprocal plots, read-out: Ki against MtNdh): 0.03 to 0.04 µM | Mode of inhibition against MtNdh ([1]; versus Q2 and NADH): noncompetitive mode of inhibition with both substrates | IC50 [2]: > 50 µM | HepG2 cytotoxicity (in words) [3]: no noticeable cytotoxicity | PFI [4]: 4.7 | MIC ([5]; read-out: 7H9-ADC MIC): 0.6 µM | MIC ([5]; read-out: 7H9-ADC MIC in ng/mL): 190 ng/mL | Growth of wild-type MTb H37Rv over 7 days [6]: could not fully suppress growth | Activity against MTb growing in infected macrophages [7]: lacked activity | Clb ([8]; C57Bl/6, mouse, in vivo): 23 mL/min/kg | Vd ([8]; C57Bl/6, mouse, in vivo): 0.8 L/kg | bioavailability ([8]; C57Bl/6, mouse, in vivo): 46% | AUC(0-t) [8, 16]: 2610 ng·h/mL | Cmax [8, 16]: 748 ng/mL | half-life ([8]; C57Bl/6, whole blood, C57 mouse PK at 3 iv and 10 po (mg/kg), 1 free base, 7 HCl salt): 1.5 h | Mouse microsomal metabolite identification [9]: significant oxidation of the cyclohexyl and quinazolin-4(3H)-one rings as well as cleavage of the amide bond | Effect on maximal respiration after CCCP uncoupling ([10]; CCCP 3 μM, compared to untreated control): significantly diminished maximal respiration | Effect on basal MTb OCR ([10]; ~45 min, glucose or palmitate): minimal effect | chromatographic logD [11]: 1.8 | PPB (% unbound) [12]: 14 % unbound | MIC ([13]; read-out: GAST MIC): 0.3 µM | MIC ([13]; read-out: GAST MIC in ng/mL): 95 ng/mL | Cyd KO reporter [14]: Not likely QcrB inhibitor | solubility kinetic [15]: 83 µM (≈ 26.3 µg/mL)
